In brackets after ≈: the same amount, converted by molar mass.
Columns and labels:
[1] = system: Staphylococcus aureus; assay: Antibacterial activity against Staphylococcus aureus by microdilution broth method; type: functional
[2] = biological target: T1, Isoprenyl transferase (Streptococcus pneumoniae serotype 4 (strain ATCC BAA-334 / TIGR4), UniProt Q97SR4); assay: Inhibition of Streptococcus pneumoniae UPPS
T1 sequence (Q97SR4 whole entry): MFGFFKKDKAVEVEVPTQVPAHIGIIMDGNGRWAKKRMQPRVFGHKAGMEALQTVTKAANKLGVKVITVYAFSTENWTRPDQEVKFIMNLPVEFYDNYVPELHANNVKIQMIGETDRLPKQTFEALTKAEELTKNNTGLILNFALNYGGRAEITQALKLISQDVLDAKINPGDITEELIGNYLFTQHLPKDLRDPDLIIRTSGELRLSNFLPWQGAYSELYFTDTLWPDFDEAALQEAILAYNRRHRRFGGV

[3] = system: Streptococcus pneumoniae; assay: Antibacterial activity against Streptococcus pneumoniae by microdilution broth method; type: functional
[4] = biological target: T2, Farnesyl pyrophosphate synthase (Homo sapiens, UniProt P14324); assay: Inhibition of human FPPS
T2 sequence (P14324 whole entry): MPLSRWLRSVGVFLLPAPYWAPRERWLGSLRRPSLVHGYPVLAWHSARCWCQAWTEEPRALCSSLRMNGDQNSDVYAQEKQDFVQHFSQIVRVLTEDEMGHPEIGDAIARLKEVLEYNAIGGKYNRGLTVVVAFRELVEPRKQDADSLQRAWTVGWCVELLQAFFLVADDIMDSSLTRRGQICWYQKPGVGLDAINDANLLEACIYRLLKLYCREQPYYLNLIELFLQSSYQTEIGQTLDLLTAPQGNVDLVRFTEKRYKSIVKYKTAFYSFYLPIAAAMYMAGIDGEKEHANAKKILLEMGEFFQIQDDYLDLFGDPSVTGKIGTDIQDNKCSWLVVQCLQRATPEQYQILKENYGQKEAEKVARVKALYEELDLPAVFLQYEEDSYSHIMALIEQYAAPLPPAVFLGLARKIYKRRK

[5] = system: Enterococcus faecalis; assay: Antibacterial activity against Enterococcus faecalis by microdilution broth method; type: functional
[6] = Dissociation constant, pKa of the compound; type: physicochemical

Row | Compound | MIC [1] | IC50 [2] | MIC [3] | IC50 [4] | MIC [5] | pKa [6]
1 | O=C(Nc1ccc(C2CCCCC2)cc1)C1=C(O)C(Cc2ccccc2)OC1=O (centres undefined) | 64 mg/L (≈ 163 µM) | 0.5 µM | 1 mg/L (≈ 2.55 µM) | > 50 µM | 32 mg/L (≈ 81.7 µM) | –
2 | O=C(Nc1ccc(S(=O)(=O)c2ccccc2)cc1)C1=C(O)CC(Cc2ccccc2)NC1=O (centres undefined) | 32 mg/L (≈ 69.2 µM) | 8.5 µM | 16 mg/L (≈ 34.6 µM) | – | 16 mg/L (≈ 34.6 µM) | 6.5
3 | O=C(Nc1ccc(Cl)cc1)C1=C(O)C(c2ccccc2)OC1=O (centres undefined) | > 64 mg/L | 24 µM | 64 mg/L (≈ 194 µM) | > 50 µM | > 64 mg/L | –
4 | O=C(Nc1ccc(Oc2ccccc2)cc1)C1=C(O)CC(Cc2ccccc2)NC1=O (centres undefined) | 16 mg/L (≈ 38.6 µM) | 0.11 µM | 32 mg/L (≈ 77.2 µM) | > 50 µM | 64 mg/L (≈ 154 µM) | 6.5
5 | O=C(Nc1ccc(Nc2ccccc2)cc1)C1=C(O)CC(Cc2ccccc2)NC1=O (centres undefined) | – | 1.1 µM | – | – | – | 6.5
6 | O=C(Nc1ccc(N2CCCCC2)cc1)C1=C(O)C(CCc2ccccc2)NC1=O (centres undefined) | 4 mg/L (≈ 9.86 µM) | 0.8 µM | 4 mg/L (≈ 9.86 µM) | > 50 µM | 8 mg/L (≈ 19.7 µM) | 3
7 | O=C1NCC(CC2CCCCC2)C(O)=C1C(=O)Nc1ccc(-n2ccnc2)cc1 (centres undefined) | 16 mg/L (≈ 40.6 µM) | 2.1 µM | 16 mg/L (≈ 40.6 µM) | – | 4 mg/L (≈ 10.1 µM) | –
8 | COCC1NC(=O)C(C(=O)Nc2ccc(C3CCCCC3)cc2)=C1O (centres undefined) | – | > 50 µM | – | – | – | 3
9 | O=C(Nc1ccc(-c2ccccc2)cc1)C1=C(O)C(CCc2ccccc2)NC1=O (centres undefined) | 4 mg/L (≈ 10 µM) | 0.12 µM | 2 mg/L (≈ 5.02 µM) | > 100 µM | 16 mg/L (≈ 40.2 µM) | 3
10 | O=C(Nc1ccc(C2CCCCC2)cc1)C1=C(O)CN(Cc2ccccc2)C1=O | 0.5 mg/L (≈ 1.28 µM) | 0.3 µM | – | 8 µM | 1 mg/L (≈ 2.56 µM) | 3
11 | O=C(Nc1ccc(F)cc1)C1=C(O)C(CCc2ccccc2)NC1=O (centres undefined) | 16 mg/L (≈ 47 µM) | 2.5 µM | 16 mg/L (≈ 47 µM) | – | 64 mg/L (≈ 188 µM) | 3
12 | O=C1NCC(Cc2ccccc2)C(O)=C1C(=O)Nc1ccc(-n2ccnc2)cc1 (centres undefined) | 64 mg/L (≈ 165 µM) | 8.8 µM | 32 mg/L (≈ 82.4 µM) | – | 4 mg/L (≈ 10.3 µM) | –
13 | O=C(Nc1ccc(C2CCCCC2)cc1)C1=C(O)CC(c2ccccc2)NC1=O (centres undefined) | 4 mg/L (≈ 10.2 µM) | 0.2 µM | 4 mg/L (≈ 10.2 µM) | > 50 µM | 8 mg/L (≈ 20.5 µM) | 6.5
14 | O=C(Nc1ccc(-c2ccccc2)cc1)C1=C(O)C(Cc2ccccc2)OC1=O (centres undefined) | > 128 mg/L | 1.1 µM | 4 mg/L (≈ 10.4 µM) | – | 32 mg/L (≈ 83 µM) | –
15 | O=C(NC1CCCCC1)C1=C(O)CC(Cc2ccccc2)NC1=O (centres undefined) | 64 mg/L (≈ 195 µM) | 0.07 µM | 64 mg/L (≈ 195 µM) | > 50 µM | 64 mg/L (≈ 195 µM) | 6.5
16 | O=C(Nc1ccc(C2CCCCC2)cc1)C1=C(O)C[C@H](c2ccccc2)NC1=O | 4 mg/L (≈ 10.2 µM) | 0.18 µM | 4 mg/L (≈ 10.2 µM) | > 50 µM | 64 mg/L (≈ 164 µM) | 6.5

Row | Compound | MIC [1] | IC50 [2] | MIC [3] | IC50 [4] | MIC [5] | pKa [6]
17 | O=C(Nc1ccc(C2CCCCC2)cc1)C1=C(O)C[C@@H](c2ccccc2)NC1=O | 4 mg/L (≈ 10.2 µM) | 0.07 µM | 4 mg/L (≈ 10.2 µM) | > 100 µM | 64 mg/L (≈ 164 µM) | 6.5
18 | O=C(Nc1ccc(C2CCCCC2)cc1)C1=C(O)C(CCc2ccccc2)NC1=O (centres undefined) | 4 mg/L (≈ 9.89 µM) | 0.16 µM | 1 mg/L (≈ 2.47 µM) | > 100 µM | 4 mg/L (≈ 9.89 µM) | 3
19 | CC(C)CC1NC(=O)C(C(=O)Nc2ccc(C3CCCCC3)cc2)=C1O (centres undefined) | 0.5 mg/L (≈ 1.4 µM) | 1.3 µM | 1 mg/L (≈ 2.81 µM) | > 50 µM | 2 mg/L (≈ 5.61 µM) | 3
20 | O=C1NCC(O)=C1C(=O)Nc1ccc(C2CCCCC2)cc1 | – | 58 µM | – | – | – | 3
21 | O=C(Nc1ccc(C2CCCCC2)cc1)C1=C(O)C(c2ccccc2)NC1=O (centres undefined) | 2 mg/L (≈ 5.31 µM) | 3.5 µM | 2 mg/L (≈ 5.31 µM) | > 100 µM | 4 mg/L (≈ 10.6 µM) | 3
22 | O=C(Nc1ccc(C2CCCCC2)cc1)C1=C(O)CC(Cc2ccccc2)NC1=O (centres undefined) | 32 mg/L (≈ 79.1 µM) | 0.04 µM | 8 mg/L (≈ 19.8 µM) | > 50 µM | 64 mg/L (≈ 158 µM) | 6.5
23 | O=C(Nc1ccc(-n2ccnc2)cc1)C1=C(O)CC(Cc2ccccc2)NC1=O (centres undefined) | 32 mg/L (≈ 82.4 µM) | 0.63 µM | 32 mg/L (≈ 82.4 µM) | – | 32 mg/L (≈ 82.4 µM) | 6.5
24 | CCCCCCOc1ccc(NC(=O)C2=C(O)C(Cc3ccccc3)NC2=O)cc1 (centres undefined) | – | 19 µM | – | – | – | 3
25 | O=C(Nc1ccc(C(F)(F)F)nc1)C1=C(O)CC(Cc2ccccc2)NC1=O (centres undefined) | 16 mg/L (≈ 40.9 µM) | 0.14 µM | 8 mg/L (≈ 20.4 µM) | > 50 µM | 16 mg/L (≈ 40.9 µM) | 6.5
26 | O=C(Nc1ccc(N2CCCCC2)cc1)C1=C(O)CC(Cc2ccccc2)NC1=O (centres undefined) | 64 mg/L (≈ 158 µM) | 0.11 µM | 64 mg/L (≈ 158 µM) | > 50 µM | 64 mg/L (≈ 158 µM) | 6.5
27 | O=C(NC1CCCCC1)C1=C(O)C(CCc2ccccc2)NC1=O (centres undefined) | 32 mg/L (≈ 97.4 µM) | 35 µM | 64 mg/L (≈ 195 µM) | – | 32 mg/L (≈ 97.4 µM) | 3
28 | O=C(Nc1ccc(C2CCCCC2)cc1)C1=C(O)C(Cc2ccccc2)NC1=O (centres undefined) | 0.5 mg/L (≈ 1.28 µM) | 1.8 µM | 1 mg/L (≈ 2.56 µM) | > 100 µM | 8 mg/L (≈ 20.5 µM) | 3
29 | CC(C)CC1CC(O)=C(C(=O)Nc2ccc(C3CCCCC3)cc2)C(=O)N1 (centres undefined) | > 64 mg/L | 0.2 µM | 4 mg/L (≈ 10.8 µM) | – | 64 mg/L (≈ 173 µM) | 6.5
30 | O=C(Nc1ccc(C2CCCCC2)cc1)C1=C(O)CC(C2CCCCC2)NC1=O (centres undefined) | > 32 mg/L | 0.06 µM | > 32 mg/L | – | 32 mg/L (≈ 80.7 µM) | 6.5
31 | O=C(Nc1cc(Cl)cc(Cl)c1)C1=C(O)C(c2ccccc2)OC1=O (centres undefined) | 32 mg/L (≈ 87.9 µM) | 2 µM | 4 mg/L (≈ 11 µM) | > 50 µM | 32 mg/L (≈ 87.9 µM) | –
32 | O=C(Nc1ccc(C2CCCCC2)cc1)C1=C(O)C(Cc2ncc[nH]2)NC1=O (centres undefined) | 16 mg/L (≈ 42.1 µM) | 4.2 µM | 8 mg/L (≈ 21 µM) | – | 16 mg/L (≈ 42.1 µM) | 3
